Results: publication PMC8584349 (International Journal of Molecular Sciences, 2021)

Tests used:
Conditions in all cases: 12 h
[1] = tested on: SARS-CoV-2 B.1.351 (Beta) PsV
[2] = tested on: SARS-CoV-2 B.1.1.7 (Alpha) PsV
[3] = tested on: SARS-CoV-2 P.1 (Gamma) PsV
[4] = tested on: SARS-CoV-2 B.1.617.2 (Delta) PsV

CC[C@H](C)[C@H](NC(=O)[C@H](C)NC(=O)[C@H](CCC(=O)O)NC(=O)[C@H](CCC(=O)O)NC(=O)[C@H](CC(C)C)NC(=O)[C@H](CCCCN)NC(=O)[C@H](CCCCN)NC(=O)[C@H](CCSC)NC(=O)[C@H](CCC(=O)O)NC(=O)[C@H](Cc1ccc(O)cc1)NC(=O)[C@H](CCC(=O)O)NC(=O)[C@H](CC(C)C)NC(=O)[C@H](CC(=O)O)NC(=O)[C@H](CC(C)C)NC(=O)[C@H](Cc1ccccc1)NC(=O)[C@@H](NC(=O)[C@@H](NC(=O)[C@H](CC(N)=O)NC(=O)[C@@H](NC(=O)[C@H](CCC(N)=O)NC(=O)[C@H](CC(=O)O)NC(=O)[C@H](CC(C)C)NC(=O)[C@@H](N)CO)[C@@H](C)CC)C(C)C)[C@@H](C)O)C(=O)N[C@@H](CCCCN)C(=O)N[C@@H](CCCCN)C(=O)N[C@@H](CC(C)C)C(=O)N[C@@H](CCC(=O)O)C(=O)N[C@@H](CCC(=O)O)C(=O)N[C@@H](CO)C(=O)N[C@@H](Cc1ccc(O)cc1)C(=O)N[C@H](C(=O)N[C@@H](CC(=O)O)C(=O)N[C@@H](CC(C)C)C(=O)N[C@@H](CCCCN)C(=O)N[C@@H](CCC(=O)O)C(=O)N[C@@H](CC(C)C)C(=O)O)[C@@H](C)CC [EK1]
IC50 [1]: 2290 nM | IC50 [2]: 4610 nM | IC50 [3]: 1320 nM | IC50 [4]: 480 nM
